PMC10895668, “Lead Optimization of the 5-Phenylpyrazolopyrimidinone NPD-2975 toward Compounds with Improved Antitrypanosomal Efficacy” (Journal of Medicinal Chemistry, 2024)
Read-outs that look alike come from different tables or passages of the source.

Tests used:
T. b. brucei = assay: Trypanosoma susceptibility assay (resazurin viability); type: cell-based; conditions: for IC50: Trypanosoma brucei
Description: (§1) The antiparasitic assays were carried out exactly as described in Blaazer et al.([39]) Metabolic stability, pharmacokinetics, acute mouse infection model results were collected as described previously.[21] All animal experiments were conducted in compliance with institutional guidelines and following approval by the Ethical Committee of the University of Antwerp, Belgium [UA-ECD 2014–96]. Female Swiss mice (15–20 g), were purchased from Janvier (Le Genest Saint Isle, France). […] Animals were treated PO b.i.d. for 5 days at 25 and 50 mg/kg 31c. For the SL-RNA qPCR experiments blood was collected sublingually and subjected to erythrocyte lysis before extracting RNA with the QIAamp RNA Blood Mini kit (Qiagen). […] Small pieces of fat, brain, and spleen tissue were excised and immediately transferred to RNA later (Qiagen) and incubated overnight at 4 °C. RNA extraction was performed as instructed in the RNeasy Mini Plus Kit manual (Qiagen). The one-step SensiFAST SYBR Hi-Rox PCR kit (Bioline USA Inc., via Gentaur Belgium BVBA, Kampenhout, Belgium) was used for the PCR with the following forward and reverse primers, respectively 5′-[…]-3′ and 5′-[…]-3′. An initial activation step of 10 min at 45 °C and 10 min at 95 °C was used, followed by the amplification step for 40 cycles (15 s at 95 °C, 15 s 50 °C and 15 s at 60 °C). At last, the melting curves were generated with an increment of 0.3 °C (15 s at 95 °C 1 min at 45 °C and 15 s at 95 °C). The PCR was run on the Step One Plus real-time PCR system (Applied Biosystems, California, USA). An additional qPCR was performed with the mouse housekeeping gene Eef2 to confirm successful RNA extraction.
In vitro experiments were carried out with the bloodstream form of the T. b. brucei Squib strain (suramin-sensitive). Parasites were routinely cultured in T25 culture flasks containing 10 mL of HMI-9 medium (Invitrogen) supplemented with 10% heat-inactivated fetal bovine serum (Life Technologies) and 2.5 μg/mL Geneticin (Life Technologies). MRC-5SV2 cells were cultured in MEM + Earl’s salts-medium, supplemented with 2 mM L-glutamine, 16.5 mM NaHCO3, and 5% inactivated fetal calf serum. All cultures and assays were conducted at 37 °C under an atmosphere of 5% CO2.
(§2) Parasites were counted in a KOVA counting chamber and diluted to 1.5 × 10^4 parasites/well of a 96-well plate (200 μL total volume), upon which the prediluted test compounds were added. Drug exposure covered a 72 h period without renewal of the culture medium. After 3 days of incubation, parasite growth was assessed fluorimetrically after addition of 50 μL of resazurin per well. After 6 h (T. b. rhodesiense) or 24 h (T. b. brucei) at 37 °C, fluorescence is measured (λex 550 nm, λem 590 nm). Parasite viability was assessed using the resazurin viability assay, and drug activity was calculated as percentage viability reduction compared to nontreated controls.

MRC-5 cells = assay: MRC-5SV2 cytotoxicity assay; type: cell-based; conditions: Homo sapiens, MRC5, 72 h; cytotoxicity, 3 days incubation; mean ± SD, n ≥ 2; read-out: pIC50 MRC-5 (converted)
Description: The synthesized analogues were tested against T. b. brucei, and inhibition of MRC-5 (human lung fibroblasts MRC-5SV40) cell proliferation was included as cytotoxicity control. […] Analogue 17 with an amino group instead of the carbonyl group was prepared to improve solubility for further modification. […] In vitro experiments were carried out with the bloodstream form of the T. b. brucei Squib strain (suramin-sensitive). […] All cultures and assays were conducted at 37 °C under an atmosphere of 5% CO2. […] Cell growth is compared to untreated-control wells (100% cell growth) and medium-control wells (0% cell growth). […] After 4 h at 37 °C, fluorescence is measured (λex 550 nm, λem 590 nm). The results are expressed as % reduction in cell growth/viability compared to control wells and an IC50 and an IC90 (50 and 90% inhibitory concentrations) are determined.

T. b. rhodesiense = assay: Trypanosoma susceptibility assay (resazurin viability); type: cell-based; conditions: Trypanosoma brucei, mean ± SD, n ≥ 2, read-out: pIC50 T. b. rhodesiense (converted)
Description: The antiparasitic assays were carried out exactly as described in Blaazer et al.([39]) Metabolic stability, pharmacokinetics, acute mouse infection model results were collected as described previously.[21] All animal experiments were conducted in compliance with institutional guidelines and following approval by the Ethical Committee of the University of Antwerp, Belgium [UA-ECD 2014–96]. Female Swiss mice (15–20 g), were purchased from Janvier (Le Genest Saint Isle, France). […] Animals were treated PO b.i.d. for 5 days at 25 and 50 mg/kg 31c. For the SL-RNA qPCR experiments blood was collected sublingually and subjected to erythrocyte lysis before extracting RNA with the QIAamp RNA Blood Mini kit (Qiagen). […]
as §2, with “Drug exposure covered a 72 h period without renewal of the culture medium.” left out

Trypanosoma cruzi = assay: Antiparasitic assay, T. cruzi; type: cell-based; conditions: mean ± SD, n ≥ 2, read-out: pIC50 T. cruzi (converted)
Description: (§3) First, they were tested in vitro against the protozoan species Trypanosoma cruzi and Leishmania infantum and the clinically relevant T. b. rhodesiense.
as §1, with “An initial activation step of 10 min at 45 °C and 10 min at 95 °C was used, followed by the amplification step for 40 cycles (15 s at 95 °C, 15 s 50 °C and 15 s at 60 °C). At last, the melting curves were generated with an increment of 0.3 °C (15 s at 95 °C 1 min at 45 °C and 15 s at 95 °C). The PCR was run on the Step One Plus real-time PCR system (Applied Biosystems, California, USA). An additional qPCR was performed with the mouse housekeeping gene Eef2 to confirm successful RNA extraction.” left out

Leishmania infantum = assay: Antiparasitic assay, L. infantum; type: cell-based; conditions: mean ± SD, n ≥ 2, read-out: pIC50 L. infantum (converted)
Description: as §3
as §1, with “An initial activation step of 10 min at 45 °C and 10 min at 95 °C was used, followed by the amplification step for 40 cycles (15 s at 95 °C, 15 s 50 °C and 15 s at 60 °C). At last, the melting curves were generated with an increment of 0.3 °C (15 s at 95 °C 1 min at 45 °C and 15 s at 95 °C). The PCR was run on the Step One Plus real-time PCR system (Applied Biosystems, California, USA). An additional qPCR was performed with the mouse housekeeping gene Eef2 to confirm successful RNA extraction.” left out

[1] = test system: peritoneal mouse macrophages (PMM); assay: Cytotoxicity on peritoneal mouse macrophages; type: cell-based; conditions: Macrophage, n ≥ 2
[2] = In vivo pharmacokinetics in non-infected mice
Description: as §1
Blood drops were sampled before treatment and at 0.5, 1, 2, 4, 6, and 24 h after PO dosage; samples after IP dosage were identical with an additional time point of 0.25 h. The blood drops were analyzed adopting the dry blood spot technique and analysis by LC-MS^2. Briefly, blood was collected from the retro-orbital complex using capillary tubes and dropped (15 μL) on WhatmanFTADMPK cards (B). The spots were left to air-dry at room temperature for at least 2 h. For analysis, a 6 mm disk was punched out and extracted in 75:25 MeCN/water containing the internal standard tolbutamide. The amount of parent compound was determined using liquid chromatography (UPLC) (Waters Aquity) coupled with tandem quadrupole mass spectrometry (MS^2) (Waters Xevo) equipped with an electrospray ionization (ESI) interface and operated in multiple reaction monitoring mode. Standard curves in whole blood were made for calibration and validation. Standard PK parameters were determined using Topfit software.
Brain tissue of the animals was collected on ice at autopsy 24 h post-treatment (50 mg/kg oral dose) after perfusion. […] The tissues were immediately homogenized using a GentleMacs tissue homogenizer. The tissue samples were subjected to protein precipitation by adding MeCN, followed by a centrifugation step at 4 °C for 5 min at 21, 130 g. The supernatant was further diluted in 75:25 MeCN/water for LC-MS^2 analysis as described above.

[3] = mouse, microsomes
[4] = female, Swiss, mouse, in vivo, ip, 10 mg/kg
[5] = female, Swiss, mouse, in vivo, po, 50 mg/kg

CC(C)(C)c1n[nH]c2c(=O)[nH]c(-c3ccc(F)cc3)nc12 [31c, 3-(tert-Butyl)-5-(4-fluorophenyl)-1,6-dihydro-7H-pyrazolo[4,3-d]pyrimidin-7-one]
improved potency compared to 2 (T. b. brucei; T. brucei, versus compound 2): 4 fold | IC50 (T. b. brucei; 72 h, T. b. brucei Squib bloodstream form, 72 h exposure, mean ± SD, n ≥ 2, read-out: pIC50 T. brucei (converted)): 15.8 nM | IC50 (T. b. brucei; read-out: IC50 against T. b. brucei): 17 nM | IC50 (MRC-5 cells): > 63100 nM | IC50 (T. b. rhodesiense): 10 nM | IC50 (Trypanosoma cruzi): > 63100 nM | IC50 (Leishmania infantum): > 63100 nM | IC50 [1]: > 63100 nM | blood concentration exceeding the in vitro IC50 against T. brucei ([2]; both routes (10 mg/kg IP, 50 mg/kg PO)): more than 300 fold | AUC(0-t) at 24 h [2, 4]: 2470 ± 1560 ng·h/mL | Cl [2, 4]: 326 ± 148 | Cmax at 24 h [2, 4]: 5.05 ± 1.51 µM | Tmax at 24 h [2, 4]: 0.5 ± 0.3 h | half-life at 24 h [2, 4]: 1.56 ± 0.5 h | AUC0–6 h higher compared with 2 [2, 5]: more than 7 fold | AUC(0-t) at 24 h [2, 5]: 43400 ng·h/mL | Cl [2, 5]: 11 ± 1 | Cmax at 24 h [2, 5]: 10.9 ± 1.69 µM | Tmax at 24 h [2, 5]: 6 h | concentration at 24 h [2, 5]: 0.296 µM | half-life at 24 h [2, 5]: 3.51 ± 1.34 h | Phase-I metabolic stability (in words) [3]: improved metabolic stability compared with 2 | parent compound remaining ([3]; 1 h): at least 69%
